Data set [1] concerns mice. Kind of data set: Psychomotor sensitization, repeated injections in open-field chambers. Format: in vivo, mouse. To be noted: for psychomotor sensitization: ip, three days, (R)-MTD 2, 5, 10, (R,S)-MTD 4, 10, 20, (S)-MTD 20, 30, 40 mg/kg.
Data set [2] deals with rats. Kind of data set: Intravenous self-administration. Format: in vivo, rat. To be noted: for shape of IVSA dose-response / unit dose with peak infusion rates in IVSA dose response: trained rats; for acquisition of IVSA in dose finding experiments: rats, (R)-MTD at 50 μg/kg/infusion, (S)-MTD even at high unit doses.
The subject of data set [3] is rats. Kind of data set: Hotplate analgesia. The class given is in vivo, rat.
Data set [4] deals with mice. Kind of data set: Acute locomotor activity. The class given is in vivo, mouse. Conditions: for most effective dose for locomotor activation (inverted U) / effect on locomotion: sc; for effect on locomotion: after 60 minutes of habituation, (S)-MTD up to 100 mg/kg.
For data set [5], the system named is rats. In words: Catalepsy score. The class given is in vivo, rat.
Another data set addresses SERT (Homo sapiens, UniProt P31645). In words: Receptor and enzyme competitive screen. Format: binding. To be noted: 100 nM.
The subject of data set [6] is extracellular dopamine in rat VTA. In words: In vivo microdialysis, perfusion into VTA, somatodendritic dopamine release. To be noted: for effect on extracellular dopamine: local perfusion, (S)-MTD up to 100 μM.
The next data set relates to NMDARs. Conditions: ref [10], cited from earlier work.

Sequence of SERT (P31645 whole entry, species assumed, the tested form may be a part): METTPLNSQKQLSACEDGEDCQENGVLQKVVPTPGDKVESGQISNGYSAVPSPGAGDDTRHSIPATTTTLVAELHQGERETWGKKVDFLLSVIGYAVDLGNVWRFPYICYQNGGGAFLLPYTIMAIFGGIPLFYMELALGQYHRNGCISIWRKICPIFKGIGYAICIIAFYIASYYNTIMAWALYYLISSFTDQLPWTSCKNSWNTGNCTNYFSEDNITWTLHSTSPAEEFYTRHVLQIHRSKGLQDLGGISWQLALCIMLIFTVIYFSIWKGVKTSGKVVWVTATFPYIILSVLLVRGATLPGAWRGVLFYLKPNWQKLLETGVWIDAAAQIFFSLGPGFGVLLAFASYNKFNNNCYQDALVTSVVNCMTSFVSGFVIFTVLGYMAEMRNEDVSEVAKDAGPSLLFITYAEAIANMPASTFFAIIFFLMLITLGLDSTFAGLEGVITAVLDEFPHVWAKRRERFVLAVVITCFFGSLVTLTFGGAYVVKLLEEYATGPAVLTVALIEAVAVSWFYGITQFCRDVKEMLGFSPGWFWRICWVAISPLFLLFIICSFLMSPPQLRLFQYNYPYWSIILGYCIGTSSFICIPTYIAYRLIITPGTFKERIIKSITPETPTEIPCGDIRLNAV

Regarding `CCC(=O)C(CC(C)N(C)C)(c1ccccc1)c1ccccc1` (racemic) [(R,S)-MTD, (R,S)-methadone], in the data set on mice [1], the psychomotor sensitization result is listed as “failed to show sensitization at any dose”. In the data set with rats [2], the “shape of IVSA dose-response” value is on record as “inverted-U shaped dose-response curve” and the “unit dose with peak infusion rates in IVSA dose response” value stood at 0.05 mg/kg. For the same molecule, in the data set with rats [3], the “hotplate ED50 (%MPE)” value was 1.2 mg/kg and the hotplate agonist profile result is “full agonistic activity”. Further, in the data set on mice [4], the “most effective dose for locomotor activation (inverted U)” value is on record as 10 mg/kg and the effect on locomotion result is “increased locomotion”. For the same molecule, in the data set with rats [5], the “cataleptic ED50 (%MPE)” value came to 2.1 mg/kg and the “dose at which maximal cataleptic effects were observed” value was 10 mg/kg.

Take `CCC(=O)C(C[C@@H](C)N(C)C)(c1ccccc1)c1ccccc1` [(R)-MTD]: the psychomotor sensitization entry in the data set on mice [1] was “produced psychomotor sensitization at 10 mg/kg”. The “maximum consumed at the highest dose in IVSA” value in the data set on rats [2] (rats exposed to (R)-MTD, dose finding) is on record as ~ 2 mg/kg. Besides, in the data set with rats [2], the “acquisition of IVSA in dose finding experiments” value is recorded as “readily self-administered”, the “shape of IVSA dose-response” value was “inverted-U shaped dose-response curve” and the “unit dose with peak infusion rates in IVSA dose response” value is 0.025 mg/kg. In addition, the “inhibition of binding at SERT” value on SERT is recorded as 68%. Also, in the data set on rats [3], the “hotplate ED50 (%MPE)” value stood at 0.5 mg/kg and the hotplate agonist profile entry is given as “full agonistic activity”. Moreover, in the data set on mice [4], the “most effective dose for locomotor activation (inverted U)” value is on record as 3 mg/kg and the effect on locomotion result was “increased locomotion”. Moreover, the “effect on extracellular dopamine” value in data set [6] is “concentration-dependent increase in extracellular dopamine”. Besides, in the data set with rats [5], the “cataleptic ED50 (%MPE)” value was 0.9 mg/kg and the “dose at which maximal cataleptic effects were observed” value is reported as 3 mg/kg.

In the case of `CCC(=O)C(C[C@H](C)N(C)C)(c1ccccc1)c1ccccc1` [(S)-MTD, (S)-methadone], in the data set on mice [1] ((S)-MTD 10 or 30 mg/kg), the “effect of pretreatment on (R)-MTD-induced (10 mg/kg, ip) sensitization” value was “did not prevent psychomotor sensitization”. In the data set with mice [1], the psychomotor sensitization result is recorded as “failed to show sensitization at any dose”. The “IVSA in (R)-MTD-trained rats switched to (S)-MTD” value in the data set on rats [2] (500 μg/kg/infusion) was “reliable IVSA”. Further, the “cumulative dose consumed at the highest dose in IVSA” value in the data set with rats [2] ((R)-MTD-trained rats switched to (S)-MTD) was ~ 30 mg/kg. For the same molecule, in the data set on rats [2], the “acquisition of IVSA in dose finding experiments” value is on record as “never acquired IVSA” and the “shape of IVSA dose-response” value was “no evidence of dose response”. The hotplate agonist profile result in the data set with rats [3] was “full agonistic activity”. In addition, in the data set with mice [4] ((S)-MTD 10, 30 mg/kg sc, 15 min before (R)-MTD), the “effect on locomotor-stimulating effect of (R)-MTD (10 mg/kg, sc)” value is listed as “dose-dependently counteracted”. In the data set on mice [4], the effect on locomotion entry is “did not produce any significant locomotor-activating effects”. The “effect on (R)-MTD (10 μM)-induced dopamine release” value in data set [6] (co-perfusion, (S)-MTD 100 μM) is “completely counteracted”. The “effect on extracellular dopamine” value in data set [6] is on record as “did not induce any significant effect”. For the same molecule, the “affinity for the MOR, times greater than affinity for the NMDAR” value in the data set with NMDARs ([15]) is on record as ~ 300 times. Moreover, the “affinity at NMDARs” value with NMDARs was 2.6 to 7.4 µM. The “catalepsy score agonist profile” value in the data set on rats [5] (up to 100 mg/kg) is listed as “partial agonist”.

These data come from paper PMC11221360 (Molecular psychiatry, 2023).
